# Measurements taken from patent publication US20170305943A1, “COMPOUNDS FOR THE TREATMENT OF BACTERIAL INFECTIONS” (priority 2014, published 2017).
# Test system: Clostridium difficile (Isolate ID ATCC 9689)
# Assay: Bacterial Assay: Determination of Antibacterial Activity (MIC, broth microdilution or agar dilution)
# Format: cell-based
# Details: Clostridioides difficile, ATCC9689, 48 h, read-out: C. difficile MIC Activity Range
# Summary of the method: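 MICs were set by CLSI broth microdilution or agar dilution for anaerobes, read visually after 48 hours at 37° C. under anaerobic gas packs. Medium was reinforced clostridial medium with 0.1% defibrinated horse blood; values are binned as A ≦1.01, B >1.0-4.0, C >4.0-16 μg/mL.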
row,SMILES,MIC
1,"Cc1ccc(CNC(=O)OCC(Oc2ccc(F)c(C(N)=O)c2F)c2nc(-c3ccc(C(F)(F)F)cc3)c(Br)o2)cn1 (stereo not drawn) [Compound 89, 2-{5-bromo-4-[4-(trifluoromethyl)phenyl]-1,3-oxazol-2-yl}-2-(3-carbamoyl-2,4-difluorophenoxy)ethyl [(6-methylpyridin-3-yl)methyl]carbamate]",< 1.01 µg/mL
2,"CCOC(=O)COCC(Oc1ccc(F)c(C(N)=O)c1F)c1nc(-c2ccc(C(F)(F)F)cc2)c(Br)o1 (stereo not drawn) [Compound 44, ethyl [2-{5-bromo-4-[4-(trifluoromethyl)phenyl]-1,3-oxazol-2-yl}-2-(3-carbamoyl-2,4-difluorophenoxy)ethoxy]acetate]",4 to 16 µg/mL
3,"N#Cc1cc(Cl)ccc1-c1csc(COc2ccc(F)c(C(N)=O)c2F)n1 [Compound 206, 3-{[4-(4-chloro-2-cyanophenyl)-1,3-thiazol-2-yl]methoxy}-2,6-difluorobenzamide]",< 1.01 µg/mL
4,"Cn1ccc(CNC(=O)OCC(Oc2ccc(F)c(C(N)=O)c2F)c2nc(-c3ccc(C(F)(F)F)cc3)c(Br)o2)n1 (stereo not drawn) [Compound 72, 2-{5-bromo-4-[4-(trifluoromethyl)phenyl]-1,3-oxazol-2-yl}-2-(3-carbamoyl-2,4-difluorophenoxy)ethyl [(1-methyl-1H-pyrazol-3-yl)methyl]carbamate]",< 1.01 µg/mL
5,"NC(=O)c1c(F)ccc(OC(CO)c2nc(-c3ccc(Cl)cc3)cs2)c1F (stereo not drawn) [Compound 25, 3-{1-[4-(4-chlorophenyl)-1,3-thiazol-2-yl]-2-hydroxyethoxy}-2,6-difluorobenzamide]",4 to 16 µg/mL
6,"Cc1cc(CNC(=O)OCC(Oc2ccc(F)c(C(N)=O)c2F)c2nc(-c3ccc(C(F)(F)F)cc3)c(Br)o2)n(C)n1 (stereo not drawn) [Compound 87, 2-{5-bromo-4-[4-(trifluoromethyl)phenyl]-1,3-oxazol-2-yl}-2-(3-carbamoyl-2,4-difluorophenoxy)ethyl [(1,3-dimethyl-1H-pyrazol-5-yl)methyl]carbamate]",1 to 4 µg/mL
7,"CCCCCCCCCOc1ccc(F)c(C(=N)N)c1F [Compound 107, 2,6-difluoro-3-(nonyloxy)benzenecarboximidamide]",4 to 16 µg/mL
8,"NC(=O)c1c(F)ccc(OCCCc2nc3cc(Cl)ccc3s2)c1F [Compound 109, 3-[3-(5-chloro-1,3-benzothiazol-2-yl)propoxy]-2,6-difluorobenzamide]",1 to 4 µg/mL
9,"NC(=O)c1c(F)ccc(OCCCCOc2ccc(OC(F)(F)F)c(Cl)c2)c1F [Compound 164, 3-{4-[3-chloro-4-(trifluoromethoxy)phenoxy]butoxy}-2,6-difluorobenzamide]",< 1.01 µg/mL
10,"Cn1nccc1CNC(=O)OCC(Oc1ccc(F)c(C(N)=O)c1F)c1nc(-c2ccc(C(F)(F)F)cc2)c(Br)o1 (stereo not drawn) [Compound 73, 2-{5-bromo-4-[4-(trifluoromethyl)phenyl]-1,3-oxazol-2-yl}-2-(3-carbamoyl-2,4-difluorophenoxy)ethyl [(1-methyl-1H-pyrazo1-5-yl)methyl]carbamate]",< 1.01 µg/mL
11,"COC(=O)NCC(Oc1ccc(F)c(C(N)=O)c1F)c1nc(-c2ccc(C(F)(F)F)cc2)c(Br)o1 (racemic) [Compound 94, methyl [2-{5-bromo-4-[4-(trifluoromethyl)phenyl]-1,3-oxazol-2-yl}-2-(3-carbamoyl-2,4-difluorophenoxy)ethyl]carbamate]",1 to 4 µg/mL
12,"NC(=O)c1c(F)ccc(OC(COP(=O)(O)O)c2nc(-c3ccc(C(F)(F)F)cc3)c(Br)o2)c1F (stereo not drawn) [Compound 43, 2-{5-bromo-4-[4-(trifluoromethyl)phenyl]-1,3-oxazol-2-yl}-2-(3-carbamoyl-2,4-difluorophenoxy)ethyl dihydrogen phosphate]",1 to 4 µg/mL
13,"C=CCc1ccc2sc(COc3ccc(F)c(C(N)=O)c3F)nc2c1 [Compound 14, 2,6-difluoro-3-{[5-(prop-2-en-1-yl)-1,3-benzothiazol-2-yl]methoxy}benzamide]",4 to 16 µg/mL
14,"NC(=O)c1c(F)ccc(OC(COC(=O)NCCn2ccccc2=O)c2nc(-c3ccc(C(F)(F)F)cc3)c(Br)o2)c1F (stereo not drawn) [Compound 92, 2-{5-bromo-4-[4-(trifluoromethyl)phenyl]-1,3-oxazol-2-yl}-2-(3-carbamoyl-2,4-difluorophenoxy)ethyl [2-(2-oxopyridin-1(2H)-yl)ethyl]carbamate]",1 to 4 µg/mL
15,"NC(=O)c1c(F)ccc(OC(COC(=O)CCCN2C(=O)c3ccccc3C2=O)c2nc(-c3ccc(C(F)(F)F)cc3)c(Br)o2)c1F (stereo not drawn) [Compound 42, 2-{5-bromo-4-[4-(trifluoromethyl)phenyl]-1,3-oxazol-2-yl}-2-(3-carbamoyl-2,4-difluorophenoxy)ethyl 4-(1,3-dioxo-1,3-dihydro-2H-isoindo1-2-yl)butanoate]",< 1.01 µg/mL
16,"Cc1c(CNC(=O)OCC(Oc2ccc(F)c(C(N)=O)c2F)c2nc(-c3ccc(C(F)(F)F)cc3)c(Br)o2)cnn1C (stereo not drawn) [Compound 82, 2-{5-bromo-4-[4-(trifluoromethyl)phenyl]-1,3-oxazol-2-yl}-2-(3-carbamoyl-2,4-difluorophenoxy)ethyl [(1,5-dimethyl-1H-pyrazol-4-yl)methyl]carbamate]",< 1.01 µg/mL
17,"CNCC(=O)OCC(Oc1ccc(F)c(C(N)=O)c1F)c1nc(-c2ccc(C(F)(F)F)cc2)c(Br)o1 (stereo not drawn) [Compound 39, 2-{5-bromo-4-[4-(trifluoromethyl)phenyl]-1,3-oxazol-2-yl}-2-(3-carbamoyl-2,4-difluorophenoxy)ethyl N-methylglycinate]",< 1.01 µg/mL
18,"CCCCCCCCCOc1ccc(Cl)c(C(N)=O)c1F [Compound 2, 6-chloro-2-fluoro-3-(nonyloxy)benzamide]",< 1.01 µg/mL

row,SMILES,MIC
1,"CC(C)(C)c1ccc(OCCCCOc2ccc(F)c(C(N)=O)c2F)cc1 [Compound 175, 3-[4-(4-tert-butylphenoxy)butoxy]-2,6-difluorobenzamide]",< 1.01 µg/mL
2,"CCCCCCOCCOc1ccc(F)c(C(N)=O)c1F [Compound 4, 2,6-difluoro-3[2-(hexyloxy)ethoxy]benzamide]",1 to 4 µg/mL
3,"NC(=O)c1c(F)ccc(SCCCCOc2ccc(OC(F)(F)F)cc2)c1F [Compound 157, 2,6-difluoro-3-({4-[4-(trifluoromethoxy)phenoxy]butyl}thio)benzamide]",1 to 4 µg/mL
4,"NC(=O)c1c(F)ccc(OCc2nc(-c3ccc(S(F)(F)(F)(F)F)cc3)no2)c1F [Compound 120, 2,6-difluoro-3-({3-[4-(pentafluoro-lambda~6~- sulfanyl)phenyl]-1,2,4-oxadiazol-5-yl}methoxy)benzamide]",4 to 16 µg/mL
5,"COC(=O)CCNC(=O)OCC(Oc1ccc(F)c(C(N)=O)c1F)c1nc(-c2ccc(C(F)(F)F)cc2)c(Br)o1 (stereo not drawn) [Compound 54, methyl N-{[2-{5-bromo-4-[4-(trifluoromethyl)phenyl]-1,3-oxazol-2-yl}-2-(3-carbamoyl-2,4-difluorophenoxy)ethoxy]carbonyl}-beta-alaninate]",1 to 4 µg/mL
6,"CN(CCCCOc1ccc(C(F)(F)F)cn1)c1ccc(F)c(C(N)=O)c1F [Compound 180, 2,6-difluoro-3-[methyl(4-{[5-(trifluoromethyl)pyridin-2-yl]oxy}butyl)amino]benzamide]",1 to 4 µg/mL
7,CNCNC(=O)c1c(F)ccc(OCc2nc3cc(Cl)cnc3s2)c1F [Compound 103],4 to 16 µg/mL
8,"COc1cc(CNC(=O)OCC(Oc2ccc(F)c(C(N)=O)c2F)c2nc(-c3ccc(C(F)(F)F)cc3)c(Br)o2)ccn1 (stereo not drawn) [Compound 84, 2-{5-bromo-4-[4-(trifluoromethyl)phenyl]-1,3-oxazol-2-yl}-2-(3-carbamoyl-2,4-difluorophenoxy)ethyl [(2-methoxypyridin-4-yl)methyl]carbamate]",< 1.01 µg/mL
9,"NC(=O)c1c(F)ccc(OCCCCOc2cccc(Cl)c2)c1F [Compound 140, 3-[4-(3-chlorophenoxy)butoxy]-2,6-difluorobenzamide]",1 to 4 µg/mL
10,"NC(=O)c1c(F)ccc(OCCCc2nc(-c3ccc(OC(F)(F)F)cc3)cs2)c1F [Compound 115, 2,6-difluoro-3-(3-{4-[4-(trifluoromethoxy)phenyl]-1,3-thiazol-2-yl}propoxy)benzamide]",1 to 4 µg/mL
11,"NC(=O)c1c(F)ccc(OCc2nc(-c3ccc(Cl)c(O)c3)cs2)c1F [Compound 196, 3-{[4-(4-chloro-3-hydroxyphenyl)-1,3-thiazol-2-yl]methoxy}-2,6-difluorobenzamide]",1 to 4 µg/mL
12,"COc1cc(-c2csc(COc3ccc(F)c(C(N)=O)c3F)n2)ccc1Cl [Compound 195, 3-{[4-(4-chloro-3-methoxyphenyl)-1,3-thiazol-2-yl]methoxy}-2,6-difluorobenzamide]",4 to 16 µg/mL
13,"NC(=O)c1c(F)ccc(OCCc2nc(-c3ccc(OC(F)(F)F)cc3)no2)c1F [Compound 117, 2,6-difluoro-3-(2-{3-[4-(trifluoromethoxy)phenyl]-1,2,4-oxadiazol-5-yl}ethoxy)benzamide]",< 1.01 µg/mL
14,"NC(=O)c1c(F)ccc(OCc2nc(-c3ccc(F)cc3)cs2)c1F [Compound 15, 2,6-difluoro-3-{[4-(4-fluorophenyl)-1,3-thiazol-2-yl]methoxy}benzamide]",1 to 4 µg/mL
15,"NC(=O)c1c(F)ccc(OCCCCNc2ccc(C(F)(F)F)cc2)c1F [Compound 147, 2,6-difluoro-3-(4-{[4-(trifluoromethyl)phenyl]amino}butoxy) benzamide]",1 to 4 µg/mL
16,"NC(=O)c1c(F)ccc(OC(COC(=O)NCc2cccnc2)c2nc(-c3ccc(C(F)(F)F)cc3)c(Br)o2)c1F (stereo not drawn) [Compound 62, 2-{5-bromo-4-[4-(trifluoromethyl)phenyl]-1,3-oxazol-2-yl}-2-(3-carbamoyl-2,4-difluorophenoxy)ethyl (pyridin-3-ylmethyl)carbamate]",1 to 4 µg/mL
17,"COc1ccc(C#Cc2csc(COc3ccc(F)c(C(N)=O)c3F)n2)cc1 [Compound 197, 2,6-difluoro-3-({4-[(4-methoxyphenyl)ethynyl]-1,3-thiazol-2-yl}methoxy)benzamide]",< 1.01 µg/mL
18,"CC(=O)OCC(Oc1ccc(F)c(C(N)=O)c1F)c1nc(-c2ccc(C(F)(F)F)cc2)c(Cl)o1 (stereo not drawn) [Compound 34, 2-(3-carbamoyl-2,4-difluorophenoxy)-2-{5-chloro-4-[4-(trifluoromethyl)phenyl]-1,3-oxazol-2-yl}ethyl acetate]",< 1.01 µg/mL
